Like-named read-outs stand apart in the source and are kept apart here.

Broadly, the IC50 is the concentration that inhibits the measured activity by half.

The subject of experiment [1] is HCV replicon 1A. Briefly: Cell-based HCV Replicon Assay A, replicon 1A. In a few lines:
(§1)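 Three-day exposure of replicon cells (2000/well) to serially diluted compound, 0.5% DMSO, 5% serum. RNA per cell was derived as (Ct − intercept)/slope from replicon total RNA standards, with cyclophilin amplified in the same reaction.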
(In general: Replicon systems follow genome replication, usually without infectious particles.)

Experiment [2] deals with HCV replicon 1AY93H. Briefly: Cell-based HCV Replicon Assay A, replicon 1AY93H. The gist of the method: as §1
The test system of experiment [3] is HCV replicon 2B. Description: Cell-based HCV Replicon Assay A, replicon 2B. In a few lines: as §1
The subject of experiment [4] is HCV replicon 1B. Description: Cell-based HCV Replicon Assay B, replicon 1B. In a few lines: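 EC50 defined as the drug concentration giving a CT increase of 1 above projected baseline, from real-time RT-PCR of replicon RNA using genotype-specific primers and probes. Cells were seeded in 5% FBS, dosed after 24 h and incubated 3 days before lysis.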
[5] abbreviates: read-out: 1A Y93H IC50, replicon 1AY93H.
Setting [6] is: Hepatitis C virus, read-out: 1A Y93H IC50 (nM), replicon 1AY93H.
The mark [7] stands for this setting: Hepatitis C virus, read-out: 2B IC50 (nM), replicon 2B.

As to `COC(=O)N[C@H](C(=O)N1CCC[C@H]1c1ncc(-c2cc(F)c3c(c2)OC(c2cnc(CC4CC4)s2)n2c-3cc3cc(-c4cnc([C@@H]5CCCN5C(=O)[C@@H](NC(=O)OC)C(C)C)[nH]4)ccc32)[nH]1)C(C)C` (single isomer, unassigned) [Compound 509], the 50% inhibitory concentration (IC50) was 0.002 nM in experiment [1]; 0.014 nM in experiment [2] (replicon 1AY93H, read-out: 1A Y93H IC50); 0.018 nM in experiment [3] (replicon 2B, read-out: 2B IC50); 0.0028 nM in experiment [4].
For the compound `COC(=O)N[C@H](C(=O)N1CCC[C@H]1c1ncc(-c2cc(F)c3c(c2)OC(c2cnc(C4(C)CC4)s2)n2c-3cc3cc(-c4cnc([C@@H]5CCCN5C(=O)[C@@H](NC(=O)OC)C(C)C)[nH]4)ccc32)[nH]1)C(C)C` (single isomer, unassigned) [Compound 512], the IC50 in experiment [1] was found to be 0.0085 nM; in experiment [2] (setting [5]) it was 0.347 nM; in experiment [3] (read-out: 2B IC50, replicon 2B), 0.783 nM; in experiment [4] it was 0.0039 nM.
Consider `COC(=O)N[C@H](C(=O)N1CCC[C@H]1c1ncc(-c2cc(F)c3c(c2)OC(c2sc(C(C)C)nc2C)n2c-3cc3cc(-c4cnc([C@@H]5CCCN5C(=O)[C@@H](NC(=O)OC)C(C)C)[nH]4)ccc32)[nH]1)C(C)C` (single isomer, unassigned) [Compound 515], for which the IC50 in experiment [1] (Hepatitis C virus) is 0.0013 nM; in experiment [2] (setting [6]), 4.45 nM; in experiment [3] (setting [7]), 1.84 nM; in experiment [4] (Hepatitis C virus), 0.0029 nM.
As to `COC(=O)N[C@H](C(=O)N1CCC[C@H]1c1ncc(-c2cc(F)c3c(c2)OC(c2cnc(C4CCOCC4)s2)n2c-3cc3cc(-c4cnc([C@@H]5CCCN5C(=O)[C@@H](NC(=O)OC)C(C)C)[nH]4)ccc32)[nH]1)C(C)C` (single isomer, unassigned) [Compound 532], the IC50 in experiment [1] worked out at 0.0013 nM; in experiment [2] (setting [5]), 1.76 nM; in experiment [3] (read-out: 2B IC50, replicon 2B), 1.18 nM; in experiment [4] it was 0.0036 nM.
The matching figures for `CCCc1ncc(C2Oc3cc(-c4cnc([C@@H]5CCCN5C(=O)[C@@H](NC(=O)OC)C(C)C)[nH]4)cc(F)c3-c3cc4cc(-c5cnc([C@@H]6CCCN6C(=O)[C@@H](NC(=O)OC)C(C)C)[nH]5)ccc4n32)s1` (stereo partly shown) [Compound 16]: 0.0017 nM, 0.083 nM, 0.284 nM and 0.001 nM.
Consider `COC(=O)N[C@H](C(=O)N1CCC[C@H]1c1nc(-c2cc(F)c3c(c2)OC(c2cnc(C4CCCCC4)s2)n2c-3cc3cc(-c4cnc([C@@H]5CCCN5C(=O)[C@@H](NC(=O)OC)C(C)C)[nH]4)ccc32)c[nH]1)C(C)C` (stereo partly shown) [Compound 415], for which the IC50 in experiment [1] (Hepatitis C virus) amounted to 0.0016 nM; in experiment [2] (setting [6]), 2.88 nM; in experiment [3] (setting [7]), 1.43 nM; in experiment [4] (Hepatitis C virus) it was 0.002 nM.
Consider `COC(=O)N[C@H](C(=O)N1CCC[C@H]1c1ncc(-c2cc(F)c3c(c2)OC(c2cnc(C4CC4)s2)n2c-3cc3cc(-c4cnc([C@@H]5CC6(C)CC6N5C(=O)[C@@H](NC(=O)OC)C(C)C)[nH]4)ccc32)[nH]1)C(C)C` (stereo partly shown) [Compound 517], for which the IC50 in experiment [1] (Hepatitis C virus) worked out at 0.0017 nM; in experiment [2] (setting [6]), 0.392 nM; in experiment [3] (setting [7]), 0.874 nM; in experiment [4] (Hepatitis C virus) it was 0.0033 nM.

These data come from patent US9555038B2, “Heterocycle-substituted tetracyclic compounds and methods of use thereof for the treatment of viral diseases” (Merck Sharp & Dohme Corp., priority 2013, dated 2017).
